Marks after values point to notes of the source that are not given here.

Broadly, the Ki is a measure of affinity in units of concentration, obtained from inhibition or displacement. A lower Ki goes with higher affinity.

One assay concerns the target 5-HT6 receptor (Homo sapiens, UniProt P50406). Put plainly: Radioligand binding, 5-HT6 ([3H]-LSD displacement). The following applies: for displacement % at 10^−6M, 5-HT6: values marked c in the 5-HT6 column.
For the next assay, the target named is T1, 5-HT1A receptor (Homo sapiens, UniProt P08908).
T1 sequence (P08908 1-422): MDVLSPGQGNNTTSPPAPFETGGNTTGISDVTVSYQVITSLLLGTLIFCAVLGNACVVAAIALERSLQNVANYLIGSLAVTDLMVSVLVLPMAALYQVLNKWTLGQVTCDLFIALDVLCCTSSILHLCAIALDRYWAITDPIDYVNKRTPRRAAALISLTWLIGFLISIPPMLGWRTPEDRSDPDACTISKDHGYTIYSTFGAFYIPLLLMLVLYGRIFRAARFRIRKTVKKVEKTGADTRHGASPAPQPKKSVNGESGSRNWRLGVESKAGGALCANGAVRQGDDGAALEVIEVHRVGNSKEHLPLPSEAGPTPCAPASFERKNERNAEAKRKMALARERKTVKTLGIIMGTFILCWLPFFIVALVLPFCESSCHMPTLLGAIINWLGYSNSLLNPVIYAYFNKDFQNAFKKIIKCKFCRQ
Put plainly: Radioligand binding, 5-HT1A ([3H]-8-OH-DPAT displacement).

The next assay deals with 5-HT7 receptor (Homo sapiens, UniProt P34969). Put plainly: Radioligand binding, 5-HT7 ([3H]-5-CT displacement).
Another assay addresses dopamine D2L receptor (Homo sapiens, UniProt P14416). Put plainly: Radioligand binding, D2 ([3H]-raclopride displacement).

Sequence of dopamine D2L receptor (P14416 whole entry): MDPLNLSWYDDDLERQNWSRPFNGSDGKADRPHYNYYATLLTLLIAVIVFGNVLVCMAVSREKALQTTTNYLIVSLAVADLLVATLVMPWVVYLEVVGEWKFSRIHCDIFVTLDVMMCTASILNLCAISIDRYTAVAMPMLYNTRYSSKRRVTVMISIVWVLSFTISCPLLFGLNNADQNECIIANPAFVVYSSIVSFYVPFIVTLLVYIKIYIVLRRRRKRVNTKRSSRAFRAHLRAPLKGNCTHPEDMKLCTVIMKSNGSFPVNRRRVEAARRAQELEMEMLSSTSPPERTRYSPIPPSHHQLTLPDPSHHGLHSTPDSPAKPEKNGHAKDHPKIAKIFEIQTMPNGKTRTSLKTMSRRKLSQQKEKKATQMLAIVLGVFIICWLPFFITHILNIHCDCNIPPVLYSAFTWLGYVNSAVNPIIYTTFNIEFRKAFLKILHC
Sequence of 5-HT7 receptor (P34969 1-432 limits assumed): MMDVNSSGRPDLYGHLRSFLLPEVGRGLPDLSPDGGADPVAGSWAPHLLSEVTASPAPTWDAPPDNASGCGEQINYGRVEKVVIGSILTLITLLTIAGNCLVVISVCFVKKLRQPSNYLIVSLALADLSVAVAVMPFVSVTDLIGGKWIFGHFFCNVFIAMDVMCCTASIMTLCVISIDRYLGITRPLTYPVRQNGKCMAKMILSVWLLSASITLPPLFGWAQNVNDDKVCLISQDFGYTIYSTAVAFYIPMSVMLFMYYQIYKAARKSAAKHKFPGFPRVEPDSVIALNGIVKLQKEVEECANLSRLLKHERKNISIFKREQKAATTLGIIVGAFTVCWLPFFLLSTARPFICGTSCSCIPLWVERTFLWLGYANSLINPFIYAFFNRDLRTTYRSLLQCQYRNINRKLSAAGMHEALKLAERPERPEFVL
Sequence of 5-HT6 receptor (P50406 whole entry): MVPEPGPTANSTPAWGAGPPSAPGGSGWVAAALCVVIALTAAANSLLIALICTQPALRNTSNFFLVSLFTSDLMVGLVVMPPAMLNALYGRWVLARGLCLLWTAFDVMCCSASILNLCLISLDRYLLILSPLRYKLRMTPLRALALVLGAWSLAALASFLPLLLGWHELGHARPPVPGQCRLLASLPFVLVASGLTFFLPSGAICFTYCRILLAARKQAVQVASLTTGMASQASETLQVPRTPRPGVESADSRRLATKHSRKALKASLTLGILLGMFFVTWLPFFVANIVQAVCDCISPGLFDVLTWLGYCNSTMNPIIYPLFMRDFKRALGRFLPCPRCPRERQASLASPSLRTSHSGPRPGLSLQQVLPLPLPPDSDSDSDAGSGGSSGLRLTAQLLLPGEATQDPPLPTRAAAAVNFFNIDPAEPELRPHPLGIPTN

As for `O=S(=O)(c1cccc(C(F)(F)F)c1)n1ccc2c(N[C@H]3CCNC3)nc3ccccc3c21` [Compound 15, (S)-1-((3-(trifluoromethyl)phenyl)sulfonyl)-N-(pyrrolidin-3-yl)-1H-pyrrolo[3,2-c]quinolin-4-amine], the “displacement % at 10^−6M, 5-HT6” value on 5-HT6 receptor is 98^c %.

Consider `O=S(=O)(c1cc(F)ccc1F)n1ccc2c(OC3CCNC3)nc3ccccc3c21` (stereo not shown) [Compound 81, 1-((2,5-difluorophenyl)sulfonyl)-4-(pyrrolidin-3-yloxy)-1H-pyrrolo[3,2-c]quinoline], for which the “displacement % at 10^−6M, 5-HT6” value at 5-HT6 receptor is listed as 96^c %.

Take `O=C(c1cccc(Cl)c1)n1ccc2c(N3CCNCC3)nc3ccccc3c21` [Compound 51, (3-chlorophenyl)-(4-(piperazin-1-yl)-1H-pyrrolo[3,2-c]quinolin-1-yl)methanone]: at 5-HT6 receptor, the “displacement % at 10^−6M, 5-HT6” value is 90^C %.

As for `CC(C)(C)c1ccc(S(=O)(=O)n2ccc3c(NC4CCNC4)nc4ccccc4c32)cc1` (stereo not shown) [Compound 17, 1-((4-(tert-butyl)phenyl)sulfonyl)-N-(pyrrolidin-3-yl)-1H-pyrrolo[3,2-c]quinolin-4-amine], the Ki on 5-HT6 receptor was determined as 0.101 µM; at 5-HT1A receptor it was 6.31 µM; at 5-HT7 receptor, 1.29 µM.

Take `CC(C)c1ccc(S(=O)(=O)n2ccc3c(N4CCNCC4)nc4ccc([N+](=O)[O-])cc4c32)cc1` [Compound 63, 8-nitro-1-((4-isopropylphenyl)sulfonyl)-4-(piperazin-1-yl)-1H-pyrrolo[3,2-c]quinoline]: the “displacement % at 10^−6M, 5-HT6” value at 5-HT6 receptor is reported as 86^c %.

With `O=S(=O)(c1cccc(Cl)c1)n1ccc2c(NC3CNC3)nc3ccccc3c21` [Compound 2, 1-((3-chlorophenyl)sulfonyl)-N-(azetidin-3-yl)-1H-pyrrolo[3,2-c]quinolin-4-amine], on 5-HT6 receptor, the “displacement % at 10^−6M, 5-HT6” value was 98^c %.

On to `O=S(=O)(c1cc(F)ccc1F)n1ccc2c(NC3CCNC3)nc3ccccc3c21` (stereo not shown) [Compound 12, 1-((2,5-difluorophenyl)sulfonyl)-N-(pyrrolidin-3-yl)-1H-pyrrolo[3,2-c]quinolin-4-amine], for which the values for the inhibition constant Ki at 5-HT6 receptor, on 5-HT1A receptor and at 5-HT7 receptor were 0.009 µM, 7.06 µM and 5.22 µM, respectively.

For the compound `Cc1ccc2sc(S(=O)(=O)n3ccc4c(N5CCNCC5)nc5ccccc5c43)cc2c1` [Compound 47, 1-((5-methylbenzo[b]thiophen-2-yl)sulfonyl)-4-(piperazin-1-yl)-1H-pyrrolo[3,2-c]quinoline], the Ki on 5-HT6 receptor was determined as 0.028 µM; on dopamine D2L receptor, 1.56 µM; on 5-HT7 receptor it was 2.96 µM.

For `O=S(=O)(c1cccc2ccccc12)n1ccc2c(N3CCNCC3)nc3ccc(Cl)cc3c21` [Compound 71, 8-chloro-1-(naphthalen-1-ylsulfonyl)-4-(piperazin-1-yl)-1H-pyrrolo[3,2-c]quinoline], the “displacement % at 10^−6M, 5-HT6” value on 5-HT6 receptor is on record as 98^c %.

As for `Nc1ccc(S(=O)(=O)n2ccc3c(NC4CCNC4)nc4ccccc4c32)cc1` (stereo not shown) [Compound 18, 1-((4-aminophenyl)sulfonyl)-N-(pyrrolidin-3-yl)-1H-pyrrolo[3,2-c]quinolin-4-amine], the “displacement % at 10^−6M, 5-HT6” value at 5-HT6 receptor is 100^c %.

For `O=S(=O)(c1ccc2ccccc2c1)n1ccc2c(N3CCNCC3)nc3ccccc3c21` [Compound 44, 1-(naphthalen-2-ylsulfonyl)-4-(piperazin-1-yl)-1H-pyrrolo[3,2-c]quinoline], the “displacement % at 10^−6M, 5-HT6” value at 5-HT6 receptor was 99^c %.

Consider `O=S(=O)(c1cccc2cccnc12)n1ccc2c(N3CCOCC3)nc3ccccc3c21` [Compound 79, 1-(quinolin-8-ylsulfonyl)-4-(morpholine-4-yl)-1H-pyrrolo[3,2-c]quinoline], for which the figures for the Ki at 5-HT6 receptor, at dopamine D2L receptor and on 5-HT7 receptor were 0.095 µM, 1.23 µM and 3.42 µM, respectively.

`O=S(=O)(c1ccccc1)n1ccc2c(NC3CCNC3)nc3ccccc3c21` (stereo not shown) [Compound 4, 1-(phenylsulfonyl)-N-(pyrrolidin-3-yl)-1H-pyrrolo[3,2-c]quinolin-4-amine]: the figures for the Ki on 5-HT6 receptor, at 5-HT1A receptor and on 5-HT7 receptor were 0.004 µM, 9.15 µM and 7.89 µM, respectively.

In the case of `O=S(=O)(c1ccc(Cl)s1)n1ccc2c(N3CCNCC3)nc3ccccc3c21` [Compound 46, 1-((5-chlorothiophen-2-yl)sulfonyl)-4-(piperazin-1-yl)-1H-pyrrolo[3,2-c]quinoline], the Ki came to 0.008 µM at 5-HT6 receptor, 0.59 µM on 5-HT1A receptor and 0.817 µM on dopamine D2L receptor.

Turning to `Nc1ccc(S(=O)(=O)n2ccc3c(N[C@@H]4CCNC4)nc4ccccc4c32)cc1` [Compound 20, (R)-1-((4-aminophenyl)sulfonyl)-N-(pyrrolidin-3-yl)-1H-pyrrolo[3,2-c]quinolin-4-amine], the “displacement % at 10^−6M, 5-HT6” value at 5-HT6 receptor was 99^c %.

Turning to `O=S(=O)(c1cccc(C(F)(F)F)c1)n1ccc2c(N3CCNCC3)nc3ccccc3c21` [Compound 35, 1-((3-(trifluoromethyl)phenyl)sulfonyl)-4-(piperazin-1-yl)-1H-pyrrolo[3,2-c]quinoline], the values for the Ki on dopamine D2L receptor and at 5-HT7 receptor were 2.63 µM and 6.39 µM, respectively.

On to `O=S(=O)(c1cccc(Cl)c1)n1ccc2c(N3CCCNCC3)nc3ccccc3c21` [Compound 75, 1-((3-chlorophenyl)sulfonyl)-4-(1,4-diazepan-1-yl)-1H-pyrrolo[3,2-c]quinoline], for which the “displacement % at 10^−6M, 5-HT6” value at 5-HT6 receptor was 100^c %.

Take `Clc1cccc(Cn2ccc3c(N4CCNCC4)nc4ccccc4c32)c1` [Compound 49, 1-(3-chlorobenzyl)-4-(piperazin-1-yl)-1H-pyrrolo[3,2-c]quinoline]: the Ki came out at 3.26 µM at 5-HT1A receptor and 3.27 µM on 5-HT7 receptor.

As for `O=S(=O)(c1cccc(C(F)(F)F)c1)n1ccc2c(N[C@@H]3CCNC3)nc3ccccc3c21` [Compound 16, (R)-1-((3-(trifluoromethyl)phenyl)sulfonyl)-N-(pyrrolidin-3-yl)-1H-pyrrolo[3,2-c]quinolin-4-amine], the “displacement % at 10^−6M, 5-HT6” value on 5-HT6 receptor was 99^c %.

Take `O=S(=O)(c1ccccc1)n1ccc2c(N3CCNCC3)nc3ccccc3c21` [Compound 27, 1-(phenylsulfonyl)-4-(piperazin-1-yl)-1H-pyrrolo[3,2-c]quinoline]: the values for the Ki at 5-HT1A receptor and on dopamine D2L receptor were 0.298 µM and 1.13 µM, respectively.

In the case of “8-carbonitrile-1-(naphthalen-1-ylsulfonyl)-4-(piperazin-1-yl)-1H-pyrrolo[3,2-c]quinoline [Compound 67]”, the “displacement % at 10^−6M, 5-HT6” value on 5-HT6 receptor was 100^c %.

With `CNC1CCN(c2nc3ccccc3c3c2ccn3S(=O)(=O)c2ccccc2)C1` (stereo not shown) [Compound 26, N-methyl-1-(1-(phenylsulfonyl)-1H-pyrrolo[3,2-c]quinolin-4-yl)pyrrolidin-3-amine], the “displacement % at 10^−6M, 5-HT6” value at 5-HT6 receptor was 90^c %.

Regarding `CC(C)(C)c1ccc(S(=O)(=O)n2ccc3c(N4CCNCC4)nc4ccccc4c32)cc1` [Compound 41, 1-((4-(tert-butyl)phenyl)sulfonyl)-4-(piperazin-1-yl)-1H-pyrrolo[3,2-c]quinoline], the Ki on 5-HT6 receptor stood at 0.041 µM; at dopamine D2L receptor, 1.68 µM; on 5-HT7 receptor, 8.45 µM.

Consider `O=S(=O)(c1cccc(Cl)c1)n1ccc2c(NC3CCNC3)nc3ccc(Cl)cc3c21` (stereo not shown) [Compound 25, 8-chloro-1-((3-chlorophenyl)sulfonyl)-N-(pyrrolidin-3-yl)-1H-pyrrolo[3,2-c]quinolin-4-amine], for which, at 5-HT6 receptor, the “displacement % at 10^−6M, 5-HT6” value is on record as 96^c %.

For `CN1CCN(c2nc3ccccc3c3c2ccn3S(=O)(=O)c2cccc3ccccc23)CC1` [Compound 58, 1-(naphthalen-1-ylsulfonyl)-4-(4-methylpiperazin-1-yl)-1H-pyrrolo[3,2-c]quinoline], the Ki was 0.036 µM on 5-HT6 receptor, 0.211 µM at 5-HT1A receptor and 0.826 µM at dopamine D2L receptor.

For `O=S(=O)(c1cccc(F)c1)n1ccc2c(N[C@H]3CCNC3)nc3ccccc3c21` [Compound 9, (S)-1-((3-fluorophenyl)sulfonyl)-N-(pyrrolidin-3-yl)-1H-pyrrolo[3,2-c]quinolin-4-amine], the “displacement % at 10^−6M, 5-HT6” value at 5-HT6 receptor is 99^c %.

Turning to `O=S(=O)(c1ccc(Cl)c(Cl)c1)n1ccc2c(N3CCNCC3)nc3ccccc3c21` [Compound 34, 1-((3,4-dichlorophenyl)sulfonyl)-4-(piperazin-1-yl)-1H-pyrrolo[3,2-c]quinoline], the Ki on dopamine D2L receptor was found to be 1.55 µM; at 5-HT7 receptor, 1.98 µM.

On to `O=S(=O)(c1cccc(Cl)c1)n1ccc2c(NC3CCNC3)nc3cc(F)ccc3c21` (stereo not shown) [Compound 24, 7-fluoro-1-((3-chlorophenyl)sulfonyl)-N-(pyrrolidin-3-yl)-1H-pyrrolo[3,2-c]quinolin-4-amine], for which, on 5-HT6 receptor, the “displacement % at 10^−6M, 5-HT6” value is 95^c %.

With `Nc1ccc(S(=O)(=O)n2ccc3c(N[C@H]4CCNC4)nc4ccccc4c32)cc1` [Compound 19, (S)-1-((4-aminophenyl)sulfonyl)-N-(pyrrolidin-3-yl)-1H-pyrrolo[3,2-c]quinolin-4-amine], the “displacement % at 10^−6M, 5-HT6” value at 5-HT6 receptor is reported as 100^c %.

Turning to `CN1CCN(c2nc3ccccc3c3c2ccn3S(=O)(=O)c2ccc(F)cc2)CC1` [Compound 56, 1-((4-fluorophenyl)sulfonyl)-4-(4-methylpiperazin-1-yl)-1H-pyrrolo[3,2-c]quinoline], the Ki came out at 0.152 µM on 5-HT1A receptor and 0.393 µM at dopamine D2L receptor.

Regarding `Nc1ccc2nc(N3CCNCC3)c3ccn(S(=O)(=O)c4ccc(Cl)c(Cl)c4)c3c2c1` [Compound 65, 8-amino-1-((3,4-dichlorophenyl)sulfonyl)-4-(piperazin-1-yl)-1H-pyrrolo[3,2-c]quinoline], at 5-HT6 receptor, the “displacement % at 10^−6M, 5-HT6” value is 90^c %.

The values are drawn from patent US20170239237A1, “PYRROLOQUINOLINE DERIVATIVES AS 5-HT6 ANTAGONISTS, PREPARATION METHOD AND USE THEREOF” (Uniwersytet Jagiellonski, priority 2013, published 2017).
